Results reported in patent publication US10618902B2, “Substituted pyrido[2,3-d]pyrimidines as inhibitors of protein kinases” (Celgene CAR LLC, priority 2013, dated 2020).
Entries after “also recorded” stand apart in the source; their conditions may differ.

biological target: pFGFR4 in MDA-MB-453 cells (Homo sapiens (Human), UniProt P22455, Y367C); test: Washout experiment (duration of pFGFR4 inhibition); type: cell-based; conditions: 1000-2000 nM for 1 hr, washed, up to 24 hr
Description: The cells were allowed to settle down for 4 hrs and were then maintained in low-serum (0.1% FBS) media overnight.
The following morning, the media was removed and the cells were treated with 1000-2000 nM of test compound in low-serum media for 1 hr. The cells were washed free of test compound (3×) with PBS (Invitrogen). One set of cells was immediately lysed as indicated above as the 0 hr time point. The remaining cells were incubated with the appropriate complete growth media (10-20% FBS) for 1, 2, 4, 8, 16 (in certain circumstances) and 24 hr. DMSO (0.5%) controls were collected at all time points.

pFGFR4 in MDA-MB-453 cells, sequence (P22455 22-802 Y367C): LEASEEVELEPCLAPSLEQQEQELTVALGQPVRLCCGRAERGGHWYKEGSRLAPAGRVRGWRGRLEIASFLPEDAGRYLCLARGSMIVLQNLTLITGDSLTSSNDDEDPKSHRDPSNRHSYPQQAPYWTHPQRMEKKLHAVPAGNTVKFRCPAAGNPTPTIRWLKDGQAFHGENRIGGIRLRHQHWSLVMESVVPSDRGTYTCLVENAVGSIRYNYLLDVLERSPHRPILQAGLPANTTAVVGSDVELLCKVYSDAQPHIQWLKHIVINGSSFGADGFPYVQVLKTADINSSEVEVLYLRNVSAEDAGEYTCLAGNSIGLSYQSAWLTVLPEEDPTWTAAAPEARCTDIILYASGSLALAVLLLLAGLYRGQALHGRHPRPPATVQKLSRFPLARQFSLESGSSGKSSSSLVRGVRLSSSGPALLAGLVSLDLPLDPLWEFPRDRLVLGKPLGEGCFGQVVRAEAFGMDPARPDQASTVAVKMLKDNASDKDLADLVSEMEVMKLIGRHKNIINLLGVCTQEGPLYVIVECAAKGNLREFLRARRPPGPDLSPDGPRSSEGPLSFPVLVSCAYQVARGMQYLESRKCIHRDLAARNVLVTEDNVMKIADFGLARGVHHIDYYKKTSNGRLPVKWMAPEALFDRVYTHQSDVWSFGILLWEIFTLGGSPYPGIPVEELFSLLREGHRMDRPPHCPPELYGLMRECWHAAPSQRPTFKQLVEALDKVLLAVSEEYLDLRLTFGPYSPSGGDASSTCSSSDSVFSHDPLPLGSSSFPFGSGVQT

SMILES	duration of action against pFGFR4 signalling after washout
C=CC(=O)Nc1ccccc1Nc1ncc2c(n1)N(Cc1cccc(NC(=O)CC)c1)C(=O)N(c1c(Cl)c(OC)cc(OC)c1Cl)C2 [Compound I-1]	has PDA; also recorded: prolonged duration of action
CCC(=O)Nc1cccc(CN2C(=O)N(c3c(Cl)c(OC)cc(OC)c3Cl)Cc3cnc(Nc4ccccc4NC(=O)CC)nc32)c1 [Compound I-234]	does not have PDA; also recorded: does not show prolonged duration of action
C=CC(=O)NC1CCCCC1Nc1ncc2c(n1)N(Cc1cscn1)C(=O)N(c1c(Cl)c(OC)cc(OC)c1Cl)C2 (racemic) [Compound I-69]	prolonged duration of action; also recorded: prolonged inhibition of autophosphorylation of FGFR4
